In patent US12202828B2, “Bicyclic heterocycle compounds and their uses in therapy” (ASTEX THERAPEUTICS LIMITED, priority 2013, dated 2025):
Counter-ions that a name gives are not always drawn.

Key:
Type in all cases: cell-based, human
SK-MEL-28 [1] = assay: Apoptosis induction (cleaved caspase-3 cytometry), SK-MEL-28; details: 1 μM Example 2 plus 1 ng/ml TNF-α, 24 hour
Protocol: (§1) Melanoma cell lines were plated out in duplicate wells of 24-well plates at 0.5×10^6 cells/ml the day before treatment to allow them to adhere. After incubation of the cells with compound(s) with or without 1 ng/ml TNF-α (R&D Systems) for 24 h in a CO2 incubator at 37° C., cells were harvested by trypsinisation. The cell pellet from the 24-well plate was resuspended in 100 μl FACS buffer (PBS+1% fetal bovine serum). NucView488 reagent (from Biotium) was added to a final concentration of 2 μM. The plate was incubated in the dark for 30 minutes before measuring fluorescent stained cells in a Guava easyCyte HT cytometer (Millipore). Cleaved caspase-3 staining was recorded in the FL1 channel, with unstained and DMSO control wells being used to set the gated stained and unstained cell populations.

SK-MEL-5 = assay: Apoptosis induction (cleaved caspase-3 cytometry), SK-MEL-5; details: 1 μM Example 2 plus 1 ng/ml TNF-α, 24 hour
Protocol: as §1

SK-MEL-2 = assay: Apoptosis induction (cleaved caspase-3 cytometry), SK-MEL-2; details: 1 μM Example 2 plus 1 ng/ml TNF-α, 24 hour
Protocol: as §1

RPMI-7951 = assay: Apoptosis induction (cleaved caspase-3 cytometry), RPMI-7951; details: 1 μM Example 2 plus 1 ng/ml TNF-α, 24 hour
Protocol: as §1

MALME-3M = assay: Apoptosis induction (cleaved caspase-3 cytometry), MALME-3M; details: 1 μM Example 2 plus 1 ng/ml TNF-α, 24 hour
Protocol: as §1

A375 [2] = assay: Apoptosis induction (cleaved caspase-3 cytometry), A375; details: 1 μM Example 2 plus 1 ng/ml TNF-α, 24 hour
Protocol: as §1

WM-115 = assay: Apoptosis induction (cleaved caspase-3 cytometry), WM-115; details: 1 μM Example 2 plus 1 ng/ml TNF-α, 24 hour, dihydrochloride
Protocol: as §1

WM-266-4 = assay: Apoptosis induction (cleaved caspase-3 cytometry), WM-266-4; details: 1 μM Example 2 plus 1 ng/ml TNF-α, 24 hour, dihydrochloride
Protocol: as §1

SK-MEL-28 [3] = assay: Combination protocol for apoptosis, SK-MEL-28; details: Example 2 0.1 μM + 1 ng/ml TNF-α, 24 h
Protocol: as §1, with “After” for “Melanoma cell lines were plated out in duplicate wells of 24-well plates at 0.5×10^6 cells/ml the day before treatment to allow them to adhere. After”

A375 [4] = assay: Combination protocol for apoptosis, A375; details: 24 h
Protocol: as §1
No increase in apoptosis was seen over this time scale with the combination agent shown in the first column of the table alone (with or without TNF-α)—data not shown.

## C[C@@H]1CN(CC(=O)N2CC(C)(C)c3nc(CO)c(Cc4ccc(F)cc4)cc32)[C@@H](CN2CCOC[C@H]2C)CN1 [Example 2, 1-{6-[(4-Fluorophenyl)methyl]-5-(hydroxymethyl)-3,3-dimethyl-1H,2H,3H-pyrrolo[3,2-b]pyridin-1-yl}-2-[(2R,5R)-5-methyl-2-{[(3R)-3-methylmorpholin-4-yl]methyl}piperazin-1-yl] ethan-1-one dihydrochloride]
SK-MEL-28 [1]
  % Cleaved Caspase-3: 63.2%
SK-MEL-5
  % Cleaved Caspase-3: 52.8%
SK-MEL-2
  % Cleaved Caspase-3: 49.5%
RPMI-7951
  % Cleaved Caspase-3: 44.0%
MALME-3M
  % Cleaved Caspase-3: 29.5%
A375 [2]
  % Cleaved Caspase-3: 26.5%
WM-115
  % Cleaved Caspase-3: 16.7%
WM-266-4
  % Cleaved Caspase-3: 13.2%
SK-MEL-28 [3]
  % Apoptosis Example 2 alone*: 42.2 (0.1 μM) %
A375 [4]; Example 2 0.1 μM + 1 ng/ml TNF-α
  % Apoptosis Example 2 alone*: 14.4 (0.1 μM) %
A375 [4]; Example 2 1 μM + 1 ng/ml TNF-α
  % Apoptosis Example 2 alone*: 31.2 (1 μM) %
